≈ marks a conversion by molar mass, not a printed value.
Tests used:
poliovirus 3 (PV3) = test: microbe, parasite or virus in culture; type: cell-based; conditions: Enterovirus C, 72 h, read-out: EC50 PV3
HRV 21 = test: Cytopathic effect (CPE) inhibition assay; type: cell-based, human rhinovirus; conditions: Human rhinovirus sp., 72 h; host cell HeLa, 3 days, MEM/2% FBS, MTT assay; read-out: EC50 HRV 21
HRV 71 = test: Cytopathic effect (CPE) inhibition assay; type: cell-based, human rhinovirus; conditions: Human rhinovirus sp., 72 h; host cell HeLa, 3 days, MEM/2% FBS, MTT assay; read-out: EC50 HRV 71
[1] = tested on: coxsackievirus B1 (Cox B1); test: Multicycle cytopathic effect (CPE) reduction assay; type: cell-based; conditions: Enterovirus B, B1, 72 h, read-out: EC50 CoxB1
[2] = tested on: coxsackievirus B3 (Cox B3); test: Multicycle cytopathic effect (CPE) reduction assay; type: cell-based; conditions: Enterovirus B, B3, 72 h, read-out: EC50 CoxB3
in vitro = conditions: human
[3] = Cytotoxicity (CC50) in multicycle CPE reduction assay, MTS; conditions: human
HRV 14 = test: Cytopathic effect (CPE) inhibition assay; type: cell-based, human rhinovirus; conditions: Human rhinovirus sp., HeLa, 72 h, host cell HeLa, 3 days, MEM/2% FBS, MTT assay; read-out: EC50 HRV 14

Structure (SMILES) | EC50 (poliovirus 3 (PV3)) [µg/mL] | EC50 (HRV 21) [µg/mL] | EC50 (HRV 71) [µg/mL] | EC50 [1] [µg/mL] | EC50 [2] [µg/mL] | CC50 (in vitro) [µg/mL] | CC50 at 3 days [3] [µg/mL] | EC50 (HRV 14) [µg/mL]
CC(C)CC(=O)C(=O)NC12C(=O)c3cccc([N+](=O)[O-])c3C1(O)Oc1cc(C(C)C)ccc12 (stereo not shown) [Example 38, N-(4b hydroxyl-7-isopropyl-4-nitro-10-oxo-4b, 10-dihydro-9bH-indeno[1,2-b]benzofuran-9b-yl)-4-methyl-2-oxo pentanamide] | < 10 | > 10 | > 10 | < 1 | < 1 | > 10 | > 10 | < 10
CC(C)c1ccc2c(c1)OC1(O)c3ccccc3C(=O)C21NC(=O)C(=O)CCc1ccccc1 (stereo not shown) [Example 39, N-(4b-hydroxy-7-isopropyl-10-oxo-4b, 10-dihydro-9bH-indeno[1,2-b]benzofuran-9b-yl)-2-oxo-4-phenyl butanamide] | < 10 | > 9.5 | > 9.5 | < 0.1 | < 0.1 | 9.5 (≈ 20.9 µM) | > 10 | < 10
CCC(C)C(=O)C(=O)NC12C(=O)c3c(N)cccc3C1(O)Oc1cc(C(C)C)ccc12 (stereo not shown) [Example 40, N-(1-amino-4b-hydroxy-7-isopropyl-10-oxo-4b, 10-dihydro-9bH-indeno[1,2-b]benzofuran-9b-yl)-3-methyl-2-oxo pentanamide] | < 0.1 | > 10 | > 10 | < 0.01 | < 0.01 | > 10 | > 10 | < 0.1
CC(C)c1ccc2c(c1)OC1(O)c3ccccc3C(=O)C21NC(=O)C(=O)CBr (stereo not shown) [Example 41, 3-bromo-N-(4b-hydroxy-7-isopropyl-10-oxo-4b, 10-dihydro-9bH-indeno[1,2-b]benzofuran-9b-yl)-2-oxo propanamide] | > 10 | > 10 | > 10 | < 0.1 | < 0.1 | > 10 | > 10 | < 10
CC(C)c1ccc2c(c1)OC1(O)c3ccccc3C(=O)C21NC(=O)C(=O)CC(=O)c1ccncc1 (stereo not shown) [Example 42, N-(4b-hydroxy-7-isopropyl-10-oxo-4b, 10-dihydro-9bH-indeno[1,2-b]benzofuran-9b-yl)-2,4-dioxo-4-(pyridyn-4-yl)butanamide] | > 10 | > 10 | > 10 | < 0.1 | < 0.1 | > 10 | > 10 | < 10
CC(C)c1ccc2c(c1)OC1(O)c3ccccc3C(=O)C21NC(=O)CCC(=O)O (stereo not shown) [Example 43] | > 10 | > 10 | > 10 | < 1 | < 1 | > 10 | > 10 | > 10
CC(C)c1ccc2c(c1)OC1(O)c3ccccc3C(=O)C21NC#N (stereo not shown) [Example 46, N-(4b-hydroxy-7-isopropyl-10-oxo-4b, 10-dihydro-9bH-indeno[1,2-b]benzofuran-9b-yl)cyanamide] | > 10 | > 10 | > 10 | < 10 | < 10 | > 10 | > 10 | > 10
CC(C)c1ccc2c(c1)OC1(O)c3ccccc3C(=O)C21NC(=O)C(=O)N1CCN(C)CC1 (stereo not shown) [Example 48, N-(4b-hydroxy-7-isopropyl-10-oxo-4b, 10-dihydro-9bH-indeno[1,2-b]benzofuran-9b-yl)-2-(4-methylpiperazin-1-yl)-2-oxo acetamide] | < 10 | > 10 | > 10 | < 0.1 | < 0.1 | > 10 | > 10 | < 1
CC(C)CC(=O)C(=O)NC12C(=O)c3c(N)cccc3C1(O)Oc1cc(C(C)C)ccc12 (stereo not shown) [Example 49, N-(1-amino-4b-hydroxy-7-isopropyl-10-oxo-4b, 10-dihydro-9bH-indeno[1,2-b]benzofuran-9b-yl)-4-methyl-2-oxo pentanamide] | < 0.1 | > 10 | > 10 | < 0.01 | < 0.01 | > 10 | > 10 | < 0.1
Cc1cc(C)c(C(=O)C(=O)NC23C(=O)c4cccc([N+](=O)[O-])c4C2(O)Oc2cc(C(C)C)ccc23)c(C)c1 (stereo not shown) [Example 51] | > 10 | > 10 | > 10 | < 10 | < 10 | > 10 | > 10 | > 10
CCCC(=O)C(=O)NC12C(=O)c3c(N)cccc3C1(O)Oc1cc(C(C)C)ccc12 (stereo not shown) [Example 52, N-(1-amino-4b-hydroxy-7-isopropyl-10-oxo-4b, 10-dihydro-9bH-indeno[1,2-b]benzofuran-9b-yl)-2-oxo pentanamide] | < 0.1 | > 10 | > 10 | < 0.01 | < 0.01 | > 10 | > 10 | < 0.01
CC(C)c1ccc2c(c1)OC1(O)c3c(cccc3[N+](=O)[O-])C(=O)C21NC(=O)C(=O)CCc1ccccc1 (stereo not shown) [Example 53, N-(4b-hydroxy-7-isopropyl-4-nitro-10-oxo-4b, 10-dihydro-9bH-indeno[1,2-b]benzofuran-9b-yl)-2-oxo-4-phenyl butanamide] | > 10 | > 4.8 | > 4.8 | < 10 | < 10 | 4.8 (≈ 9.59 µM) | > 10 | > 4.8
Cc1cc(C)c(C(=O)C(=O)NC23C(=O)c4c(N)cccc4C2(O)Oc2cc(C(C)C)ccc23)c(C)c1 (stereo not shown) [Example 54, N-(1-amino-4b-hydroxy-7-isopropyl-10-oxo-4b, 10-dihydro-9bH-indeno[1,2-b]benzofuran-9b-yl)-2-mesityl-2-oxo acetamide] | < 10 | > 8.6 | > 8.6 | < 0.1 | < 0.1 | 8.6 (≈ 17.7 µM) | > 10 | < 1
CC(C)c1ccc2c(c1)OC1(O)c3ccccc3C(=O)C21N/C(=N\C(=O)OC(C)(C)C)NC(=O)OC(C)(C)C (stereo not shown) [Example 55] | > 10 | > 10 | > 10 | < 1 | < 1 | > 10 | > 10 | < 10
CC(C)c1ccc2c(c1)OC1(O)c3ccccc3C(=O)C21OC(=O)NCCNC(=O)OC(C)(C)C (stereo not shown) [Example 56, Tert-butyl (4b-hydroxy-7-isopropyl-10-oxo-4b, 10-dihydro-9bH-indeno[1,2-b]benzofuran-9b-yl)ethan-1,2-diyl dicarbamate] | > 10 | > 10 | > 10 | < 10 | < 10 | > 10 | > 10 | > 10
COc1cc(C(=O)C(=O)NC23C(=O)c4cccc([N+](=O)[O-])c4C2(O)Oc2cc(C(C)C)ccc23)cc(OC)c1OC (stereo not shown) [Example 58, N-(4b-hydroxy-7-isopropyl-4-nitro-10-oxo-4b, 10-dihydro-9bH-indeno[1,2-b]benzofuran-9b-yl) 2-oxo-2-(3,4,5-trimethoxyphenyl)acetamide] | > 10 | > 10 | > 10 | < 10 | < 10 | > 10 | > 10 | < 10
CC(=N)NC12C(=O)c3ccccc3C1(O)Oc1cc(C(C)C)ccc12 (stereo not shown) [Example 60, N-(4b-hydroxy-7-isopropyl-10-oxo-4b, 10-dihydro-9bH-indeno[1,2-b]benzofuran-9b-yl)acetimide amide] | > 10 | > 10 | > 10 | < 1 | < 10 | > 10 | > 10 | < 10
CC(C)c1ccc2c(c1)OC1(O)c3ccccc3C(=O)C21NC(N)=S (stereo not shown) [Example 61, 1-(4b-hydroxy-7-isopropyl-10-oxo-4b, 10-dihydro-9bH-indeno[1,2-b]benzofuran-9b-yl)thiourea] | > 10 | > 10 | > 10 | < 0.1 | < 1 | > 10 | > 10 | < 10
CCNC(=O)OC12C(=O)c3ccccc3C1(OC)Oc1cc(C(C)C)ccc12 (stereo not shown) [Example 62, 7-isopropyl-4b-methoxy-10-oxo-4b, 10-dihydro-9bH-indeno[1,2-b]benzofuran-9b-yl ethyl carbamate] | > 10 | > 10 | > 10 | < 10 | < 10 | > 10 | > 10 | > 10
CC(C)c1ccc2c(c1)OC1(O)c3ccccc3C(=O)C21NC(=O)CNC(=O)OC(C)(C)C (stereo not shown) [Example 63, tert-butyl (2-((4b-hydroxy-7-isopropyl-10-oxo-4b, 10-dihydro-9bH-indeno[1,2-b]benzofuran-9b-yl)amino)-2-oxoethyl)carbamate] | < 10 | > 10 | > 10 | < 0.1 | < 0.1 | > 10 | > 10 | < 1

— US9951058B2, “Compound, pharmaceutically acceptable salt or optical isomer thereof, method for preparing the same, and pharmaceutical composition for prevention or treatment of viral diseases containing same as active ingredient” (Korea Research Institute of Chemical Technology, priority 2012, dated 2018)
